From patent US8669271B2 (Boehringer Ingelheim International GmbH, priority 2010, dated 2014) come the findings set out here.

The target in this experiment is T1, human GPR119 (Homo sapiens, UniProt Q8TDV5).
T1 construct: expression vector for human GPR119 cDNA (Acc. No. NP_848566); expressed in transfected cells
T1 sequence (Q8TDV5 1-335): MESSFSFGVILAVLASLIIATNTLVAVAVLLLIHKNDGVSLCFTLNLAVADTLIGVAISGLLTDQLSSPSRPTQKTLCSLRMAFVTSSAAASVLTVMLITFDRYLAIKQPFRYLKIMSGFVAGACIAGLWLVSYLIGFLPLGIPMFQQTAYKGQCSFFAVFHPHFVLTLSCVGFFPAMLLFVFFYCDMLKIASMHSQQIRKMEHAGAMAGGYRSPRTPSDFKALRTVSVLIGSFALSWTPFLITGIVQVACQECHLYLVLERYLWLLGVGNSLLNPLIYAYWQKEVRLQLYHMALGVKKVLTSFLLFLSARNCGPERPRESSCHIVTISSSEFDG
Put plainly: AlphaScreen cAMP assay in Min-6/hGPR119 cells (activation of GPR119, intracellular cAMP). The settings on record: MIN6 cells stably transfected with human GPR119; cAMP by AlphaScreen after 45 minutes incubation at room temperature. Format: cell-based. Summed up: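 MIN6 cells stably expressing human GPR119, seeded 24 h before treatment; compounds applied 45 min at ~20 °C in Hepes-buffered saline pH 7.4 with 0.5 mM IBMX, 0.1% BSA, 1% DMSO final. Intracellular cAMP measured by AlphaScreen.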
As usually defined, the EC50 is the concentration needed to bring the measured effect to its halfway point. High values mean a less potent agent, low ones a more potent agent. In turn, `CC(C)OC(=O)N1CCC(C2Cc3cc(-c4ccc(C(=O)NCC(C)(C)CO)cc4)ccc3O2)CC1` (centres unmarked) [Example 151] registered an EC50 of 47 nM. In turn, `CC(C)OC(=O)N1CCC(C2Cc3cc(-c4ccc(CC(=O)NCC(C)(C)CO)cc4)ccc3O2)CC1` (centres unmarked) [Example 152] returned an EC50 of 153 nM.

Molecule `CC(C)OC(=O)N1CCC(C2Cc3cc(-c4ccc(C(=O)NCC5CCCO5)cc4)ccc3O2)CC1` (centres unmarked) [Example 153] yielded an EC50 of 17 nM.

The molecule `CC(C)OC(=O)N1CCC(C2Cc3cc(-c4ccc(CC(=O)NCC5CCCO5)cc4)ccc3O2)CC1` (centres unmarked) [Example 154] showed a half-maximal effective concentration (EC50) of 98 nM. `CC(C)OC(=O)N1CCC(C2Cc3cc(-c4ccc(C(=O)N(C)CCO)cc4)ccc3O2)CC1` (centres unmarked) [Example 155] had an EC50 of 82 nM. The value for `CC(C)OC(=O)N1CCC(C2Cc3cc(-c4ccc(CC(=O)N(C)CCO)cc4)ccc3O2)CC1` (centres unmarked) [Example 156] was 132 nM; that for `CC(C)OC(=O)N1CCC(C2Cc3cc(-c4ccc(C(=O)NCc5ccccn5)cc4)ccc3O2)CC1` (centres unmarked) [Example 157] was 34 nM; that for `CC(C)OC(=O)N1CCC(C2Cc3cc(-c4ccc(CC(=O)NCc5ccccn5)cc4)ccc3O2)CC1` (centres unmarked) [Example 158] was 235 nM.

Molecule `CC(C)OC(=O)N1CCC(C2Cc3cc(-c4ccc(C(=O)N(C)CC#N)cc4)ccc3O2)CC1` (centres unmarked) [Example 159] came in with an EC50 of 25 nM. In turn, `CC(C)OC(=O)N1CCC(C2Cc3cc(-c4ccc(CC(=O)N(C)CC#N)cc4)ccc3O2)CC1` (centres unmarked) [Example 160] showed an EC50 of 31 nM. In turn, `CC(=O)Nc1ccc(-c2ccc3c(c2)CC(C2CCN(C(=O)OC(C)C)CC2)O3)cn1` (centres unmarked) [Example 161, 4-[5-(6-Acetylamino-pyridin-3-yl)-2,3-dihydro-benzofuran-2-yl]-piperidine-1-carboxylic acid isopropyl ester] yielded an EC50 of 26 nM.

`CC(=O)Nc1ccc(-c2ccc3c(c2)CC(C2CCN(C(=O)OC(C)C)CC2)O3)nn1` (centres unmarked) [Example 162, 4-[5-(6-Acetylamino-pyridazin-3-yl)-2,3-dihydro-benzofuran-2-yl]-piperidine-1-carboxylic acid isopropyl ester] had an EC50 of 483 nM. In turn, `CC(=O)Nc1ccc(-c2ccc3c(c2)CC(C2CCN(C(=O)OC(C)C)CC2)O3)c(C)n1` (centres unmarked) [Example 163] yielded an EC50 of 296 nM.

With `CC(=O)Nc1ccc(-c2ccc3c(c2)CC(C2CCN(C(=O)OC(C)C)CC2)O3)cc1` (centres unmarked) [Example 164], a half-maximal response (EC50) required 89 nM. `Cc1c(-c2ccc3c(c2)CC(C2CCN(C(=O)OC(C)C)CC2)O3)cnn1C` (centres unmarked) [Example 165] returned an EC50 of 1840 nM. As for `CC(C)OC(=O)N1CCC(C2Cc3cc(-c4cncs4)ccc3O2)CC1` (centres unmarked) [Example 166], the figure is 190 nM. Regarding `COc1cnnc(-c2ccc3c(c2)CC(C2CCN(C(=O)OC(C)C)CC2)O3)c1` (centres unmarked) [Example 167], the EC50 turned out to be 845 nM. `CC(C)OC(=O)N1CCC(C2Cc3cc(-c4cnn(C)c4)ccc3O2)CC1` (centres unmarked) [Example 168]: the EC50 is 1910 nM.

Take `CC(=O)Nc1cc(-c2ccc3c(c2)CC(C2CCN(C(=O)OC(C)C)CC2)O3)ccc1C` (centres unmarked) [Example 169]: a half-maximal response (EC50) required 3140 nM. Regarding `CC(C)OC(=O)N1CCC(C2Cc3cc(-c4ccc(C#N)s4)ccc3O2)CC1` (centres unmarked) [Example 170], the response was half-maximal at 62 nM (EC50).

`Cc1nn(C)cc1-c1ccc2c(c1)CC(C1CCN(C(=O)OC(C)C)CC1)O2` (centres unmarked) [Example 171] yielded an EC50 of 582 nM. In turn, `CC(C)OC(=O)N1CCC(C2Cc3cc(-c4ccc(CN(C)S(C)(=O)=O)cc4)ccc3O2)CC1` (centres unmarked) [Example 172] came in with an EC50 of 288 nM.

Consider `CC(C)OC(=O)N1CCC(C2Cc3cc(-c4cnc(NC(=O)C(C)(C)C)s4)ccc3O2)CC1` (centres unmarked) [Example 173], for which the midpoint of the response, the EC50, lay at 373 nM. In turn, `CNc1ncc(-c2ccc3c(c2)CC(C2CCN(C(=O)OC(C)C)CC2)O3)cn1` (centres unmarked) [Example 174] returned an EC50 of 610 nM. In turn, `COc1cnc(-c2ccc3c(c2)CC(C2CCN(C(=O)OC(C)C)CC2)O3)nc1` (centres unmarked) [Example 175] returned an EC50 of 3310 nM. As to `CC(C)OC(=O)N1CCC(C2Cc3cc(-c4cnccn4)ccc3O2)CC1` (centres unmarked) [Example 176], the EC50 is 489 nM. Take `CC(=O)Nc1ncc(-c2ccc3c(c2)CC(C2CCN(C(=O)OC(C)C)CC2)O3)s1` (centres unmarked) [Example 177]: the EC50 is 201 nM. Take `CC(=O)Nc1nc(C)c(-c2ccc3c(c2)CC(C2CCN(C(=O)OC(C)C)CC2)O3)s1` (centres unmarked) [Example 178]: the response was half-maximal at 1200 nM (EC50). The value for `COc1cc(-c2ccc3c(c2)CC(C2CCN(C(=O)OC(C)C)CC2)O3)ccc1NC(C)=O` (centres unmarked) [Example 179] was 118 nM.
